Measured values taken from patent US7138233B2, “IN vitro sorting method” (Medical Research Council, priority 1997, dated 2006).

Columns and labels:
[1] = test system: E. coli S30 coupled in vitro transcription-translation system; experiment: Self-methylation of M.EcoRI gene in coupled in vitro transcription/translation, resistance to cleavage by EcoRI; assay type: biochemical; settings: translation inhibited, in the presence of puromycin
Protocol: The PCR-amplified DNA-methylases genes described above are expressed in a prokaryotic in vitro coupled transcription/translation system designed for linear templates (Lesley et al., 1991). A commercial preparation of this system is used (E. coli S30 Extract System for Linear Templates; Promega) supplemented with T7 RNA polymerase and S-adenosyl methionine (SAM) at 80 μM concentration.
Methylation is assayed by measuring the resistance of DNA fragments labelled with DIG and biotin to cleavage by the cognate restriction enzyme using the Boehringer-Mannheim DIG-Biotin ELISA or with radioactively labelled DNA fragments and streptavidin coated magnetic beads. […] The absorbance (at 450 minus 650 nm) is measured after quenching with 0.5M H2SO4 (130 μl/well).
For the radioactive assay, the plasmids and PCR fragments described above are amplified by PCR using primers LMB2-Biotin (SEQ. ID. No. 9) and LMB3 and α-P^32-CTP to give P^32-labelled DNA fragments labelled at one end by biotin and which carry the T7 RNA polymerase promoter, the phage T7 gene 10 translational start site, the methyltransferase gene and the relevant M/R sites. […] The amount of radioactively-labelled DNA on the beads and in the supernatants is determined by scintillation. […]

[2] = test system: coupled transcription-translation reaction; experiment: Production of active DHFR in a 2 hour coupled transcription-translation reaction; assay type: biochemical, E. coli; settings: 0.1 mM, alone or in combination; 2 hour reaction

| Compound | resistance to cleavage by EcoRI [1] | inhibition of the production of active DHFR [2] |
| --- | --- | --- |
| COc1ccc(C[C@H](N)C(=O)N[C@H]2[C@@H](O)[C@H](n3cnc4c(N(C)C)ncnc43)O[C@@H]2CO)cc1 [puromycin] | not observed | – |
| NADPH | – | does not cause any inhibition |
